Columns and labels:
Male C57BL6/j mice = experiment: Amphetamine-induced locomotor activity in mice (amphetamine model of schizophrenia); format: in vivo; conditions: 30 mg/kg ip, 30 minutes before amphetamine sulphate 3.0 mg/kg s.c., distance traveled measured for 60 minutes, p<0.01 vs vehicle-amphetamine
Description: Amphetamine-induced increases in locomotor ambulation are well known and are widely used as a model of the positive symptoms of schizophrenia. This model is based on evidence that amphetamine increases motor behaviors and can induce a psychotic state in humans (Yui et al. (2000) Ann NY Acad Sci 914:1-12). Further, it is well known that amphetamine-induced increases in locomotor activity are blocked by antipsychotics drugs that are effective in the treatment of schizophrenia (Ant (1995) Eur J Pharmacol 283:55-62). […]
Assessment of locomotor (ambulatory) activity: The effects of compounds on amphetamine-induced locomotor activation in mice were tested. […] Locomotor activity (ambulations) was monitored by a videotracking system (VideoTrack, Viewpoint, Champagne au Mont d'Or, France) that recorded the ambulatory movements of mice. […] Mice were placed into the locomotor boxes immediately after the amphetamine injection and their locomotor activity, defined as the distance traveled in centimeters (cm), was measured for 60 minutes. […]
Statistical analyses: Statistical analyses were performed using GraphPad PRISM statistical software (GraphPad, San Diego, Calif., USA). Data were analyzed using an unpaired t-test. […]

melting point [°C]	Compound	increase in locomotor activity induced by amphetamine (Male C57BL6/j mice; listed as #1)	increase in locomotor activity induced by amphetamine (Male C57BL6/j mice; listed as example 1)
123 to 128	O=C(c1ccc(F)c(F)c1)N1CCC[C@H](n2nnc(-c3ccc(F)cc3)n2)C1 [Example 24, (3,4-Difluoro-phenyl)-{(S)-3-[5-(4-fluoro-phenyl)-tetrazol-2-yl]-piperidin-1-yl}-methanone]		
109 to 110	O=C(c1ccc(F)nc1)N1CCC[C@H](n2nnc(-c3ccc(F)cc3)n2)C1 [Example 21, {(S)-3-[5-(4-Fluoro-phenyl)-tetrazol-2-yl]-piperidin-1-yl}-(6-fluoro-pyridin-3-yl)-methanone]		
65 to 68	O=C(c1ccc(F)cc1F)N1CCC[C@H](n2nnc(-c3ccc(F)cc3)n2)C1 [Example 25, (2,4-Difluoro-phenyl)-{(S)-3-[5-(4-fluoro-phenyl)-tetrazol-2-yl]-piperidin-1-yl}-methanone]		
109 to 110	O=C(c1ccc(F)cc1)N1CCC[C@H](n2nnc(-c3ccc(F)cc3)n2)C1 [Example 1, (4-Fluoro-phenyl)-{(S)-3-[5-(4-fluoro-phenyl)-tetrazol-2-yl]-piperidin-1-yl}-methanone]	significantly attenuate	significantly attenuated
137 to 139	O=C(c1ccc(F)cc1)N1CCCC(n2nnc(-c3ccc(F)cc3)n2)C1 (stereo not shown) [Example 2, (4-Fluoro-phenyl)-{3-[5-(4-fluoro-phenyl)-tetrazol-2-yl]-piperidin-1-yl}-methanone]		

From patent publication US20070299110A1, “Novel Tetrazole Derivatives as Positive Allosteric Modulators of Metabotropic Glutamate” (priority 2004, published 2007)
